Source: patent US20130065818A1, “Arylamide Compounds And Compositions And Uses Thereof” (POLYMEDIX, priority 2006, published 2013)
Values after ≈ are worked out from the molar mass of the structure shown. Where two headings read alike, the source gives them in different places.

Experiments:
Format in all cases: cell-based
[1] = test system: Streptococcus viridans group; test: MIC, 25 ocular isolates, broth microdilution (Example 8)
Method: (§1) Mueller-Hinton Broth supplemented with 2% lysed horse blood in tubes was inoculated with 25 ocular isolates of Streptococcus pneumoniae, Streptococcus viridans group, and Moraxella species (including Moraxella catarrhalis) plus two controls (Staphylococcus aureus and E. coli) and incubated at 37° C. overnight. Additionally, Mueller-Hinton Broth in tubes was inoculated with two controls (Staphylococcus aureus and E. coli) and incubated at 37° C. overnight on a shaker set at 250 rpm.
(§2) On the day of testing, a 640 μg/ml (1280 μg/ml for Serratia marcescens and Pseudomonas aeruginosa) concentration was prepared from a 1% stock solution in 0.01% acetic acid, 0.2% BSA in polypropylene tubes.
(§3) Serial doubling dilutions in 0.01% acetic acid, 0.2% BSA in 96 well polypropylene plates, which are used as reservoirs for the inoculation of the test plates, were carried out to obtain serial dilutions of test agents at 10 times the required test concentrations: 640, 320, 160, 80, 40, 20, 10, 5, 2.5, 1.25, and 0.625 μg/ml (1280, 640, 320, 160, 80, 40, 20, 10, 5, 2.5, and 1.25 μg/ml for Serratia marcescens and Pseudomonas aeruginosa).
(§4) Ten μl of diluted 10×test agents was added to each well of one row of the 96 well polypropylene plates from column 2 to column 12 (column 1 is a control for bacteria alone, with no peptide). Test agent concentrations in columns 2-12 were as follows: 64, 32, 16, 8, 4, 2, 1, 0.5, 0.25, 0.125, and 0.0625 μg/ml (128, 64, 32, 16, 8, 4, 2, 1, 0.5, 0.25, and 0.125 μg/ml for Serratia marcescens and Pseudomonas aeruginosa). The same peptide was in each of the 8 rows. One plate contained dilutions of one test agent and 8 bacterial isolates.
(§5) On the day of testing, the overnight bacterial broth cultures of Streptococcus pneumoniae, Streptococcus viridans and Moraxella species (including Moraxella catarrhalis) plus two controls (Staphylococcus aureus and E. coli) were diluted in 5 ml of trypticase soy broth to yield turbidity equal to a 0.5 McFarland standard. The final inoculum for MIC testing for Streptococcus pneumoniae, Streptococcus viridans and Moraxella species (including Moraxella catarrhalis) was achieved by placing 0.1 ml of the turbidity adjusted sample to 5 ml of Mueller-Hinton broth containing 2% lysed horse red blood cells.
(§6) Ninety μl of the bacterial suspensions was dispensed in each well from column 1 to column 12. Each bacterial isolate was placed in one row of a 96 well polypropylene plate containing the test agents. The plates were placed on shaker at 15 minutes at room temperature, and then incubated at 37° C. overnight. MICs were determined visually as the lowest concentration of drug that inhibits visible bacterial growth.

[2] = test system: Moraxella species (including Moraxella catarrhalis); test: as above
Method: as §1, §2, §3, §4, §5, §6

[3] = test system: E. faecalis ATCC 29212; test: MIC, laboratory strains (Example 8)
[4] = test system: Fluoroquinolone-Resistant Methicillin-Resistant Staphylococcus aureus Strain K950; test: MIC characterization of strain K950; settings: read-out: MIC (Minimum Inhibitory Concentration)
[5] = n=25 isolates, >64 replaced with 128

`N=C(N)NCCCCC(=O)Nc1cc(C(F)(F)F)cc(NC(=O)c2cc(C(=O)Nc3cc(C(F)(F)F)cc(NC(=O)CCCCNC(=N)N)c3O[C@@H]3CCNC3)ncn2)c1O[C@@H]1CCNC1` [Oligomer 4] was tested. Which MIC ([1]; Streptococcus viridans, isolate 14—E404, read-out: MIC) did it give?
Its MIC is 32 µg/mL (≈ 34.2 µM).

What about the MIC ([1]; Streptococcus viridans, isolate 15—E396, read-out: MIC) of the same molecule?
Its MIC is 16 µg/mL (≈ 17.1 µM).

What about the MIC ([1]; Streptococcus viridans, isolate 16—E262, read-out: MIC) of the same molecule?
Its MIC is 1 µg/mL (≈ 1.07 µM).

And the MIC ([1]; Streptococcus viridans, isolate 17—E362, read-out: MIC)?
The MIC was 4 µg/mL (≈ 4.27 µM).

What about the MIC ([1]; Streptococcus viridans, isolate 18—E359, read-out: MIC) of the same molecule?
Its MIC is 4 µg/mL (≈ 4.27 µM).

What about the MIC ([1]; Streptococcus viridans, isolate 19—E348, read-out: MIC) of the same molecule?
Its MIC is 8 µg/mL (≈ 8.54 µM).

And the MIC ([1]; Streptococcus viridans, isolate 20—E344, read-out: MIC)?
The MIC was 4 µg/mL (≈ 4.27 µM).

And the MIC ([1]; Streptococcus viridans, isolate 21—E308, read-out: MIC)?
The MIC was 4 µg/mL (≈ 4.27 µM).

And the MIC ([1]; Streptococcus viridans, isolate 22—E294, read-out: MIC)?
Its MIC is 4 µg/mL (≈ 4.27 µM).

What about the MIC ([1]; Streptococcus viridans, isolate 23—E292, read-out: MIC) of the same molecule?
The MIC was 4 µg/mL (≈ 4.27 µM).

What about the MIC ([1]; Streptococcus viridans, isolate 24—E285, read-out: MIC) of the same molecule?
The MIC was 4 µg/mL (≈ 4.27 µM).

And the MIC ([1]; Streptococcus viridans, isolate 25—E265, read-out: MIC)?
The MIC was 1 µg/mL (≈ 1.07 µM).

And the MIC ([1]; Streptococcus viridans, n=25 per group, read-out: Median MIC)?
Its MIC is 4 µg/mL (≈ 4.27 µM).

What about the MIC90 ([1]; Streptococcus viridans, 25 isolates, Summary of Results, >64 was Replaced with 128, read-out: MIC90) of the same molecule?
Its MIC90 is 8 µg/mL (≈ 8.54 µM).

What about the MIC50 ([1]; Streptococcus viridans, 25 isolates, Summary of Results, read-out: MIC50) of the same molecule?
Its MIC50 is 4 µg/mL (≈ 4.27 µM).

And the MIC ([1]; Streptococcus viridans, 25 isolates, Summary of Results, read-out: Median MIC)?
Its MIC is 4 µg/mL (≈ 4.27 µM).

What about the MIC50 ([1]; n=25 per group) of the same molecule?
Its MIC50 is 4 µg/mL (≈ 4.27 µM).

And the MIC90 ([1]; n=25 per group)?
The MIC90 was 8 µg/mL (≈ 8.54 µM).

And the “Range of MICs” value ([1]; n=25 per group)?
Its value is 1 to 32 µg/mL.

What about the MIC ([2]; Moraxella, 25 ocular isolates, Mueller-Hinton broth with 2% lysed horse red blood cells, read-out: Median MIC) of the same molecule?
Its MIC is no more than 4 µg/mL.

What about the MIC ([2]; Moraxella, isolate 1 K1614 - MS, read-out: MIC) of the same molecule?
Its MIC is 16 µg/mL (≈ 17.1 µM).

And the MIC ([2]; Moraxella, isolate 2 K1661 - MS, read-out: MIC)?
The MIC was 32 µg/mL (≈ 34.2 µM).

And the MIC ([2]; Moraxella, isolate 3 K1643 - MS, read-out: MIC)?
The MIC was 64 µg/mL (≈ 68.3 µM).

What about the MIC ([2]; Moraxella, isolate 4 K1640 - MS, read-out: MIC) of the same molecule?
The MIC was 8 µg/mL (≈ 8.54 µM).

And the MIC ([2]; Moraxella, isolate 5 B1431 - MS, read-out: MIC)?
Its MIC is 32 µg/mL (≈ 34.2 µM).

And the MIC ([2]; Moraxella, isolate 6 B1429 - MS, read-out: MIC)?
Its MIC is 1 µg/mL (≈ 1.07 µM).

And the MIC ([2]; Moraxella, isolate 7 B1418 - MS, read-out: MIC)?
The MIC was 32 µg/mL (≈ 34.2 µM).

And the MIC ([2]; Moraxella, isolate 8 K1784 - MS, read-out: MIC)?
The MIC was 64 µg/mL (≈ 68.3 µM).

And the MIC ([2]; Moraxella, isolate 9 K1773 - MS, read-out: MIC)?
The MIC was 64 µg/mL (≈ 68.3 µM).

What about the MIC ([2]; Moraxella, isolate 10 K1369 - MS, read-out: MIC) of the same molecule?
Its MIC is 2 µg/mL (≈ 2.13 µM).

And the MIC ([2]; Moraxella, isolate 11 B1275 - MS, read-out: MIC)?
Its MIC is 2 µg/mL (≈ 2.13 µM).

And the MIC ([2]; Moraxella, isolate 12 B1221 - MS, read-out: MIC)?
The MIC was 2 µg/mL (≈ 2.13 µM).

And the MIC ([2]; Moraxella, isolate 13 B1172 - MS, read-out: MIC)?
Its MIC is greater than 64 µg/mL.

And the MIC ([2]; Moraxella, isolate 14 E542 - MS, read-out: MIC)?
Its MIC is 2 µg/mL (≈ 2.13 µM).

What about the MIC ([2]; Moraxella, isolate 15 K678 - MS, read-out: MIC) of the same molecule?
The MIC was 2 µg/mL (≈ 2.13 µM).

What about the MIC ([2]; Moraxella, isolate 16 K660 - MS, read-out: MIC) of the same molecule?
The MIC was 2 µg/mL (≈ 2.13 µM).

And the MIC ([2]; Moraxella, isolate 17 K599 - MC, read-out: MIC)?
The MIC was 0.5 µg/mL (≈ 0.534 µM).

And the MIC ([2]; Moraxella, isolate 18 K1650 - MC, read-out: MIC)?
The MIC was 64 µg/mL (≈ 68.3 µM).

And the MIC ([2]; Moraxella, isolate 19 K1373 - MC, read-out: MIC)?
Its MIC is 1 µg/mL (≈ 1.07 µM).

And the MIC ([2]; Moraxella, isolate 20 K1553 - MC, read-out: MIC)?
The MIC was 4 µg/mL (≈ 4.27 µM).

And the MIC ([2]; Moraxella, isolate 21 K1453 - MC, read-out: MIC)?
The MIC was 4 µg/mL (≈ 4.27 µM).

What about the MIC ([2]; Moraxella, isolate 22 K1227 - MC, read-out: MIC) of the same molecule?
Its MIC is 2 µg/mL (≈ 2.13 µM).

What about the MIC ([2]; Moraxella, isolate 23 B1102 - MC, read-out: MIC) of the same molecule?
Its MIC is 1 µg/mL (≈ 1.07 µM).

What about the MIC ([2]; Moraxella, isolate 24 K1819 - MC, read-out: MIC) of the same molecule?
Its MIC is 4 µg/mL (≈ 4.27 µM).

What about the MIC ([2]; Moraxella, isolate 25 K1855 - MC, read-out: MIC) of the same molecule?
The MIC was 2 µg/mL (≈ 2.13 µM).

What about the MIC50 ([2]; Moraxella, n=25 isolates, >64 replaced with 128, read-out: MIC50) of the same molecule?
Its MIC50 is 4 µg/mL (≈ 4.27 µM).

What about the MIC90 ([2]; Moraxella, n=25 isolates, >64 replaced with 128, read-out: MIC90) of the same molecule?
The MIC90 was 64 µg/mL (≈ 68.3 µM).

What about the MIC ([2]; Moraxella, n=25 isolates, >64 replaced with 128, read-out: Median MIC) of the same molecule?
The MIC was 4 µg/mL (≈ 4.27 µM).

And the MIC50 [2, 5]?
Its MIC50 is 4 µg/mL (≈ 4.27 µM).

And the MIC90 [2, 5]?
Its MIC90 is 64 µg/mL (≈ 68.3 µM).

What about the “Range of MICs” value [2, 5] of the same molecule?
Its value is 0.5 to 128 µg/mL.

And the MIC [3]?
Its MIC is 0.78 µg/mL (≈ 0.833 µM).

What about the MIC [4] of the same molecule?
Its MIC is 0.5 µg/mL (≈ 0.534 µM).
